Where two headings read alike, the source gives them in different places.
Experiments:
[1] = target: T1, μ opiate receptor (MOR) (Rattus norvegicus, UniProt P33535); experiment: MOR agonist activity, [35S]GTPγS binding assay using striatal membranes; format: biochemical; conditions: for [35S]GTPγS binding to Gαo, FLNA-binding compound as agonist 0.1 μM: 0.1 μM compound; for [35S]GTPγS binding to Gαo, FLNA-binding compound as agonist 0.1 μM / [35S]GTPγS binding to Gαo, FLNA-binding compound as agonist 1 μM: striatal membranes; for [35S]GTPγS binding to Gαo, FLNA-binding compound as agonist 1 μM + BFNA: 1 μM compound + 1 μM β-funaltrexamine; for [35S]GTPγS binding to Gαo, FLNA-binding compound as agonist 1 μM: 1 μM compound; for % DAMGO + BFNA: relative to DAMGO + BFNA; for % DAMGO (0.1 μM) / % DAMGO (1 μM): relative to DAMGO
T1 construct: from tissue; host or cells: striatal tissue (membrane preparation)
T1 sequence (P33535 whole entry): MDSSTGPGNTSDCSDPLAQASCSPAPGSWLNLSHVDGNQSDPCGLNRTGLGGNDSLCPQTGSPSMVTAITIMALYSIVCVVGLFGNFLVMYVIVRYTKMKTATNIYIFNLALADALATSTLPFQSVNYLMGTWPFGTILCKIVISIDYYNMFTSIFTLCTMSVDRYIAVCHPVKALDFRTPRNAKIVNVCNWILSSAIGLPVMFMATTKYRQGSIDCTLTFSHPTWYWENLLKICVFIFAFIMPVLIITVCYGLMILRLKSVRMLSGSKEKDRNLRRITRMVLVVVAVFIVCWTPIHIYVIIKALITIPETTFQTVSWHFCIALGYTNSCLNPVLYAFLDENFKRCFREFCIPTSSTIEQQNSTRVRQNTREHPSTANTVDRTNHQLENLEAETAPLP
Procedure: To assess the μ opiate receptor (MOR) agonist activity of positive compounds from the FLNA screening, compounds were tested in a [^35S]GTPγS binding assay using striatal membranes.
Striatal tissue was homogenized in 10 volumes of ice cold 25 mM HEPES buffer, pH 7.4, which contained 1 mM EGTA, 100 mM sucrose, 50 μg/ml leupeptin, 0.04 mM PMSF, 2 μg/ml soybean trypsin inhibitor and 0.2% 2-mercaptoethanol. The homogenates were centrifuged at 800×g for 5 minutes and the supernatants were centrifuged at 49,000×g for 20 minutes. The resulting pellets were suspended in 10 volume of reaction buffer, which contained 25 mM HEPES, pH 7.5, 100 mM NaCl, 50 μg/ml leupeptin, 2 μg/ml soybean trypsin inhibitor, 0.04 mM PMSF and 0.02% […].
The resultant striatal membrane preparation (200 μg) was admixed and maintained (incubated) at 30° C. for 5 minutes in reaction buffer as above that additionally contained 1 mM MgCl2 and 0.5 nM [^35S]GTPγS (0.1 μCi/assay, PerkinElmer Life and Analytical Sciences) in a total volume of 250 μl and continued for 5 minutes in the absence or presence of 0.1-10 μM of an assayed compound of interest. The reaction was terminated by dilution with 750 μl of ice-cold reaction buffer that contained 20 mM MgCl2 and 1 mM EGTA and immediate centrifugation at 16,000×g for 5 minutes.
The resulting pellet was solubilized by sonicating for 10 seconds in 0.5 ml of immunoprecipitation buffer containing 0.5% digitonin, 0.2% sodium cholate and 0.5% NP-40. Normal rabbit serum (1 μl) was added to 1 ml of lysate and incubated at 25° C. for 30 minutes. Nonspecific immune complexes were removed by incubation with 25 μl of protein A/G-conjugated agarose beads at 25° C. for 30 minutes followed by centrifugation at 5,000×g at 4° C. for 5 minutes. The supernatant was divided and separately incubated at 25° C. for 30 minutes with antibodies raised against Gao proteins (1:1,000 dilutions).
The immunocomplexes so formed were collected by incubation at 25° C. for 30 minutes with 40 μl of agarose-conjugated protein A/G beads and centrifugation at 5,000×g at 4° C. for 5 minutes. The pellet was washed and suspended in buffer containing 50 mM Tris-HCl, pH 8.0, and 1% NP-40. The radioactivity in the suspension was determined by liquid scintillation spectrometry. […] DAMGO (H-Tyr-D-Ala-Gly-N-MePhe-Gly-OH; 1 or 10 μM) was used as a positive control.

[2] = target: Bn-VAKGL pentapeptide of filamin A (FLNA) (Homo sapiens, UniProt P21333); experiment: FITC-NLX-based FLNA screening assay (FLNA peptide binding assay)
Procedure: The final assay volume is 100 μl.
Compounds are tested in triplicate or quadruplicate.

[3] = read-out: Percent inhibition of FITC-NLX binding, 0.01 μM, 0.01 μM compound, 10 nM FITC-NLX
[4] = read-out: Percent inhibition of FITC-NLX binding, 0.1 μM, 0.1 μM compound, 10 nM FITC-NLX
[5] = read-out: Percent inhibition of FITC-NLX binding, 1 μM, 1 μM compound, 10 nM FITC-NLX
[6] = read-out: Percent inhibition of FITC-NLX binding, 0.01 μM
[7] = read-out: Percent inhibition of FITC-NLX binding, 0.1 μM
[8] = read-out: Percent inhibition of FITC-NLX binding, 1 μM

| Structure (SMILES) | [35S]GTPγS binding to Gαo, FLNA-binding compound as agonist 0.1 μM [1] [%] | [35S]GTPγS binding to Gαo, FLNA-binding compound as agonist 1 μM + BFNA [1] [%] | [35S]GTPγS binding to Gαo, FLNA-binding compound as agonist 1 μM [1] [%] | % DAMGO + BFNA [1] [%] | % DAMGO (0.1 μM) [1] [%] | % DAMGO (1 μM) [1] [%] | inhibition at 0.01 µM [2, 3] [%] | inhibition at 0.1 µM [2, 4] [%] | inhibition at 1 µM [2, 5] [%] | inhibition at 0.01 µM [2, 6] [%] | inhibition at 0.1 µM [2, 7] [%] | inhibition at 1 µM [2, 8] [%] |
| --- | --- | --- | --- | --- | --- | --- | --- | --- | --- | --- | --- | --- |
| COc1ccc(OCC(O)CN2CCc3cc4c(c(OC)c3C2)OCO4)cc1 (stereo not shown) [Compound A0070] | 128.6 | 80.3 | 195.3 | 232.8 | 74.7 | 88.9 | 32.9 | 39.1 | 41.7 |  |  |  |
| CC1CN(CC(O)COc2ccccc2C(C)C)CC(C)O1 (stereo not shown) [Compound A0029] | 173.8 | 22.3 | 206.5 |  |  |  |  | 44.4 |  |  |  |  |
| OC(CN1CCc2ccccc2C1)OCc1ccc(Br)c(F)c1 (stereo not shown) [Compound A0057] | 124.2 | 44.8 | 192.1 | 112.3 | 79.6 | 83.3 |  |  |  | 29.1 | 37 | 43.4 |
| COc1ccc(OCC(O)CN2CCc3ccccc32)cc1 (stereo not shown) [Compound A0069] |  |  |  |  |  |  |  |  |  | 32 | 40.4 | 46.1 |
| COc1ccc(OCC(O)CN2CCC(=O)CC2)cc1 (stereo not shown) [Compound A0071] | 225.7 | 239.4 | 310.9 | 1088.2 | 128.2 | 122.9 | 44.7 | 46.8 | 53.9 |  |  |  |
| OC(COc1ccc(Br)c(F)c1)CN1CCN(CCN2CCOCC2)CC1 (stereo not shown) [Compound A0063] | 122.8 | 310 | 245.8 | 77.7 | 78.7 | 106.6 |  |  |  | 21.2 | 31 | 38.8 |
| CC1CCC(C(C)C)C(OCC(O)CN2CCN(Cc3ccccc3)CC2)C1 (stereo not shown) [Compound A0072] | 254.3 | 171.8 | 305.1 | 318.7 | 126.8 | 97.2 |  |  |  | 45.5 | 52.2 | 59.4 |
| CC1CCC(C)C(OCC(O)CN2CC(C)OC(C)C2)C1 (stereo not shown) [Compound A0022] | 154.1 | 28.0 | 216.0 |  |  |  |  |  |  |  |  |  |
| CC1CN(CC(O)COc2ccc(Cl)cc2)CC(C)O1 (stereo not shown) [Compound A0047] | 233.0 | 116.5 | 255.0 |  |  |  |  |  |  |  |  |  |
| CC1CCC(C(C)C)C(OCC(O)Cn2cccc2)C1 (stereo not shown) [Compound A0038] | 176.7 | 107.0 | 234.5 |  |  |  |  |  |  |  |  |  |
| CC1CCC(C(C)C)C(OCC(O)CN2CCCCC2C)C1 (stereo not shown) [Compound A0007] | 102.0 | 40.4 | 221.9 |  |  |  |  |  |  |  |  |  |
| CC1CCC(C(C)C)C(OCC(O)CN2CCOCC2)C1 (stereo not shown) [Compound A0004] | 97.4 | 86.0 | 144.2 |  |  |  |  |  |  |  |  |  |
| CC1CCC(C(C)C)C(OCC(O)CN2CCN(C)CC2)C1 (stereo not shown) [Compound A0009] | 70.2 | 93.9 | 126.4 |  |  |  |  |  |  |  |  |  |
| CC1CCC(C(C)C)C(OCC(O)CN2CCN(CCc3ccccc3)CC2)C1 (stereo not shown) [Compound A0020] | 168.6 | 67.4 | 217.4 |  |  |  |  |  |  |  |  |  |
| CC1CN(CC(O)COc2cccc(C(F)(F)F)c2)CC(C)O1 (stereo not shown) [Compound A0051] | 290.4 | 211.6 | 386.6 |  |  |  |  |  |  |  |  |  |
| COc1ccc(OCC(O)CN2CCOc3ccccc32)cc1 (stereo not shown) [Compound A0076] | 79.8 | 41.2 | 172.6 | 119.4 | 46.4 | 78.6 |  |  |  |  |  |  |
| COc1ccc(OCC(O)CN2CC(C)OC(C)C2)cc1 (stereo not shown) [Compound A0048] | 233.7 | 167.2 | 302.9 |  |  |  |  |  |  |  |  |  |
| Cc1cccc(OCC(O)CN2CC(C)OC(C)C2)c1 (stereo not shown) [Compound A0030] | 133.4 | 165.2 | 287.8 |  |  |  |  |  |  |  |  |  |
| COc1ccc(OCC(O)CN2CCc3ccccc3C2)cc1 (stereo not shown) [Compound A0053] | 78.5 | 15.1 | 118.2 |  |  |  |  |  |  |  |  |  |
| COc1ccc(N2CCN(CC(O)COC3CC(C)CCC3C(C)C)CC2)c(OC)c1 (stereo not shown) [Compound A0012] | 149.3 | 122.4 | 185.7 |  |  |  |  |  |  |  |  |  |
| CC1CCC(C(C)C)C(OCC(O)CN2CCCc3ccccc32)C1 (stereo not shown) [Compound A0068] | 73.9 | 98.1 | 110.4 |  |  |  |  |  |  |  |  |  |
| CC1CCC(C(C)C)C(OCC(O)Cn2ccc3ccccc32)C1 (stereo not shown) [Compound A0078] | 250.5 | 147.8 | 289.9 |  |  |  |  |  |  |  |  |  |
| CC1CCC(C(C)C)C(OCC(O)CN2CCSC2)C1 (stereo not shown) [Compound A0002] | 155.6 | 6.5 | 199.4 |  |  |  |  |  |  |  |  |  |
| CC1CCC(C(C)C)C(OCC(O)CN2CCC2)C1 (stereo not shown) [Compound A0015] | 110.9 | 62.5 | 150.1 |  |  |  |  |  |  |  |  |  |
| CC1CCC(C(C)C)C(OCC(O)CN2CCC(=O)C(C)C2)C1 (stereo not shown) [Compound A0056] | 115.6 | 17.4 | 129.6 |  |  |  |  |  |  |  |  |  |
| CC1CCC(C(C)C)C(OCC(O)CN2CCC(=O)CC2)C1 (stereo not shown) [Compound A0060] | 99.7 | 14.3 | 158.2 |  |  |  |  |  |  |  |  |  |
